Reference: patent US9732119B2, “Immunomodulators” (BRISTOL-MYERS SQUIBB COMPANY, priority 2014, dated 2017)
Positions of bridges follow the written chain, without caps; N, C: chain ends. Non-standard residues stand in square brackets, D forms with d. Residues, ends and D or L forms follow the SMILES beside them. Trp(1-CH2COOH) = N[C@@H](Cc1cn(CC(=O)O)c2ccccc12)C(=O)O; Hyp = O=C(O)[C@@H]1C[C@@H](O)CN1; Aad = N[C@@H](CCCC(=O)O)C(=O)O; NMeNle = CCCC[C@H](NC)C(=O)O; Pip = O=C(O)[C@@H]1CCCCN1; Dab = NCC[C@H](N)C(=O)O; Dap = NC[C@H](N)C(=O)O; Ava = NCCCCC(=O)O

These compounds were tested against T1, PD-1-Ig binding to PD-L1-TVMV-His (PD-L1-His) (Homo sapiens, UniProt Q9NZQ7) (assay: PD-1/PD-L1 Homogenous Time-Resolved Fluorescence (HTRF) binding assay). Settings: PD-1-Ig (20 nM) / PD-L1-His (10 nM); range classes.
T1 construct: hPDL1(19-239)-TVMV-His; made in house; host or cells: HEK293T cells
T1 sequence (Q9NZQ7 with tags, fused parts or gaps): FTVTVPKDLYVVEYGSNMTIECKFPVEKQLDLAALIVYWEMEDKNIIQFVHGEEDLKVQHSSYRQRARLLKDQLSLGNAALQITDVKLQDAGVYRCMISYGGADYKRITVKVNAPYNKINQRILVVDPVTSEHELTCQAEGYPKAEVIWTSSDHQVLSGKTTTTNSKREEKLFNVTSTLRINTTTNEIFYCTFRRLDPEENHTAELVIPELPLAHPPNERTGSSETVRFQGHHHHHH
In short: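 HTRF competition: compound pre-incubated 15 min with PD-L1-His (10 nM final), then PD-1-Ig (20 nM final) added for 15 min in dPBS, 0.1% BSA, 0.05% Tween-20. Detection with Eu-cryptate anti-Ig (1 nM) and APC anti-His (20 nM) antibodies.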

IC50, 10 to 99 nM:
CCCC[C@H]1C(=O)N(C)[C@@H](CCCC)C(=O)N[C@@H](CC(C)C)C(=O)N[C@H](C(N)=O)CCCC(=O)N[C@@H](Cc2ccc(OC)cc2)C(=O)N2CCCC[C@H]2C(=O)N[C@@H](CC(N)=O)C(=O)N2CCC[C@H]2C(=O)N[C@@H](CN)C(=O)N[C@@H](CC(C)C)C(=O)N2C[C@H](O)C[C@H]2C(=O)N[C@@H](Cc2c[nH]c3ccccc23)C(=O)N[C@@H](CCN)C(=O)N[C@@H](Cc2cn(CC(=O)O)c3ccccc23)C(=O)N1C [Example 10525] (Y(Me)[Pip]NP[Dap]L[Hyp]W[Dab][Trp(1-CH2COOH)][NMeNle][NMeNle]L[Aad]-NH2; lactam N-14)
CCCC[C@H]1C(=O)N(C)[C@@H](CCCC)C(=O)N[C@@H](CC(C)C)C(=O)N[C@H](C(=O)NCC(N)=O)CNCC(=O)N[C@@H](Cc2ccc(O)cc2)C(=O)N(C)[C@@H](C)C(=O)N[C@@H](CC(=O)O)C(=O)N2CCC[C@H]2C(=O)N[C@@H](CCC(N)=O)C(=O)N[C@@H](CC(C)C)C(=O)N2C[C@H](O)C[C@H]2C(=O)N[C@@H](Cc2c[nH]c3ccccc23)C(=O)N[C@@H](CC(N)=O)C(=O)N[C@@H](Cc2cn(CC(=O)O)c3ccccc23)C(=O)N1C [Example 9012]

IC50, 1 to 9.9 nM:
CCCC[C@H]1C(=O)N(C)[C@@H](CCCC)C(=O)N[C@@H](CC(C)C)C(=O)NCCCCC(=O)N[C@@H](Cc2ccc(OC)cc2)C(=O)N2CCCC[C@H]2C(=O)N[C@@H](CC(=O)O)C(=O)N2CCC[C@H]2C(=O)N[C@@H](CN)C(=O)N[C@@H](CC(C)C)C(=O)N2C[C@H](O)C[C@H]2C(=O)N[C@@H](Cc2c[nH]c3ccccc23)C(=O)N[C@@H](CCN)C(=O)N[C@@H](Cc2cn(CC(=O)O)c3ccccc23)C(=O)N1C [Example 10572] (cyclo([Ava]Y(Me)[Pip]DP[Dap]L[Hyp]W[Dab][Trp(1-CH2COOH)][NMeNle][NMeNle]L))
CCCC[C@H]1C(=O)N(C)[C@@H](CCCC)C(=O)N[C@@H](CCC(=O)O)C(=O)N[C@H](C(N)=O)CNCC(=O)N[C@@H](Cc2ccc(O)cc2)C(=O)N2CCCC[C@H]2C(=O)N[C@@H](CC(N)=O)C(=O)N2CCC[C@H]2C(=O)N[C@@H](Cc2c[nH]cn2)C(=O)N[C@@H](CCC(N)=O)C(=O)N2C[C@H](O)C[C@H]2C(=O)N[C@@H](Cc2c[nH]c3ccccc23)C(=O)N[C@@H](C)C(=O)N[C@@H](Cc2cn(CC(=O)O)c3ccccc23)C(=O)N1C [Example 9056]
CCCC[C@H]1C(=O)N(C)[C@@H](CCCC)C(=O)N[C@@H](CC(C)C)C(=O)N[C@H](C(N)=O)CNCC(=O)N[C@@H](Cc2ccc(O)cc2)C(=O)N2CCCC[C@H]2C(=O)N[C@@H](CC(=O)O)C(=O)N2CCC[C@H]2C(=O)N[C@@H](CCC(N)=O)C(=O)N[C@@H](CCC(=O)O)C(=O)N2C[C@H](O)C[C@H]2C(=O)N[C@@H](Cc2c[nH]c3ccccc23)C(=O)N[C@@H](CC(N)=O)C(=O)N[C@@H](Cc2cn(CC(=O)O)c3ccccc23)C(=O)N1C [Example 9014]
CCCC[C@H]1C(=O)N(C)[C@@H](CCCC)C(=O)N[C@@H](CC(C)C)C(=O)N[C@H](C(N)=O)CNCC(=O)N[C@@H](Cc2ccc(O)cc2)C(=O)N2CCCC[C@H]2C(=O)N[C@@H](CC(=O)O)C(=O)N2CCC[C@H]2C(=O)N[C@@H](CCC(N)=O)C(=O)N[C@@H](CC(=O)O)C(=O)N2C[C@H](O)C[C@H]2C(=O)N[C@@H](Cc2c[nH]c3ccccc23)C(=O)N[C@@H](CC(N)=O)C(=O)N[C@@H](Cc2cn(CC(=O)O)c3ccccc23)C(=O)N1C [Example 9035]
CCCC[C@H]1C(=O)N(C)[C@@H](CCCC)C(=O)N[C@@H](CC(C)C)C(=O)N[C@H](C(N)=O)CNCC(=O)N[C@@H](Cc2ccc(F)cc2)C(=O)N2CCCC[C@H]2C(=O)N[C@@H](CC(=O)O)C(=O)N2CCC[C@H]2C(=O)N[C@@H](CCC(N)=O)C(=O)N[C@@H](CC(C)C)C(=O)N2C[C@H](O)C[C@H]2C(=O)N[C@@H](Cc2c[nH]c3ccccc23)C(=O)N[C@@H](CC(N)=O)C(=O)N[C@@H](Cc2cn(CC(=O)O)c3ccccc23)C(=O)N1C [Example 9038]
CCCC[C@H]1C(=O)N(C)[C@@H](CCCC)C(=O)N[C@@H](CC(C)C)C(=O)N[C@H](C(=O)NCC(N)=O)CNCC(=O)N[C@@H](Cc2ccc(O)cc2)C(=O)N(C)[C@@H](C)C(=O)N[C@@H](CC(N)=O)C(=O)N2CCC[C@H]2C(=O)N[C@@H](Cc2cnc[nH]2)C(=O)N[C@@H](CCC(N)=O)C(=O)N2C[C@H](O)C[C@H]2C(=O)N[C@@H](Cc2c[nH]c3ccccc23)C(=O)NCC(=O)N[C@@H](Cc2c[nH]c3ccccc23)C(=O)N1C [Example 10017]
